Measurements reported in US8778982B2, “Synergistic microbicidal compositions” (Rohm and Haas Company, priority 2007, dated 2014).

Tests used:
Format in all cases: cell-based
Conditions in all cases: for SI / Qa: A = MIT; for Qa: A alone where Qb = 0
[1] = test system: Escherichia coli (E. coli—ATCC #8739); assay: Synergy test, microtiter plate high resolution MIC assay, M9GY medium, bacterium
Text: (§1) One measure of synergism is the industrially accepted method described by Kull, F. C.; Eisman, P. C.; Sylwestrowicz, H. D. and Mayer, R. L., in Applied Microbiology 9:538-541 (1961), using the ratio determined by the formula: Qa/QA+Qb/QB=Synergy Index(“SI”) wherein: • QA=concentration of compound A (first component) in ppm, acting alone, which produced an end point (MIC of Compound A). • Qa=concentration of compound A in ppm, in the mixture, which produced an end point. • QB=concentration of compound B (second component) in ppm, acting alone, which produced an end point (MIC of Compound B). • Qb=concentration of compound B in ppm, in the mixture, which produced an end point.
(§2) When the sum of Qa/QA and Qb/QB is greater than one, antagonism is indicated. […] The lower the SI, the greater is the synergy shown by that particular mixture. The minimum inhibitory concentration (MIC) of a microbicide is the lowest concentration tested under a specific set of conditions that prevents the growth of the tested microorganisms.
(§3) Synergy tests were conducted using standard microtiter plate assays with media designed for optimal growth of the test microorganism. Minimal salt medium supplemented with 0.2% glucose and 0.1% yeast extract (M9GY medium) was used for testing bacteria; Potato Dextrose Broth (PDB medium) was used for testing yeast and mold. In this method, a wide range of combinations of microbicides and other personal care raw materials was tested by conducting high resolution MIC assays in the presence of various concentrations of CMIT/MIT, MIT, or BIT. High resolution MICs were determined by adding varying amounts of microbicide to one column of a microtitre plate and doing subsequent […] dilutions using an automated liquid handling system to obtain a series of endpoints ranging from 2 ppm to 10,000 ppm active ingredient.
(§4) The synergy of the combinations of the present invention was determined against a bacterium, Escherichia coli (E. coli—ATCC #8739), a yeast, Candida albicans (C. albicans—ATCC 10231), and a mold, Aspergillus niger (A. niger—ATCC 16404). The bacteria were used at a concentration of about 5×10^6 bacteria per mL and the yeast and mold at 5×10^5 fungi per mL. These microorganisms are representative of natural contaminants in many consumer and industrial applications. […] (yeast and mold) or 30° C. (bacteria).

[2] = test system: Candida albicans (C. albicans—ATCC 10231); assay: Synergy test, microtiter plate high resolution MIC assay, PDB medium, yeast
Text: as §1, §2, §3, §4

[3] = test system: Aspergillus niger (A. niger—ATCC 16404); assay: Synergy test, microtiter plate high resolution MIC assay, PDB medium, mold
Text: as §1, §2, §3, §4

[4] = E. coli 8739 - M9GY (1 day), B = Glyceryl caprate
[5] = E. coli 8739 - M9GY (1 day), B = Glyceryl mono dicaprylate
[6] = E. coli 8739 - M9GY (1 day), B = Lauric arginate
[7] = E. coli 8739 - M9GY (1 day), B = Myristamidopropyl PG-dimonium chloride phosphate
[8] = E. coli 8739 - M9GY (1 day), B = Propylene glycol caprylate
[9] = E. coli 8739 - M9GY (1 day), B = Propylene glycol monolaurate
[10] = E. coli 8739 - M9GY (6 days), B = Ethylhexylglycerin
[11] = C. albicans 10231 - PDB (1 day), B = Propylene glycol monolaurate
[12] = C. albicans 10231 - PDB (2 days), B = Glyceryl mono dicaprylate
[13] = C. albicans 10231 - PDB (6 days), B = Ethylhexylglycerin
[14] = C. albicans 10231 - PDB (6 days), B = Glyceryl caprate
[15] = C. albicans 10231 - PDB (6 days), B = Lauric arginate
[16] = C. albicans 10231 - PDB (6 days), B = Myristamidopropyl PG-dimonium chloride phosphate
[17] = C. albicans 10231 - PDB (6 days), B = Propylene glycol caprylate
[18] = A. niger 16404 - PDB (3 days), B = Myristamidopropyl PG-dimonium chloride phosphate
[19] = A. niger 16404 - PDB (3 days), B = Propylene glycol caprylate
[20] = A. niger 16404 - PDB (10 days), B = Ethylhexylglycerin
[21] = A. niger 16404 - PDB (10 days), B = Glyceryl caprate
[22] = A. niger 16404 - PDB (10 days), B = Glyceryl mono dicaprylate
[23] = A. niger 16404 - PDB (10 days), B = Lauric arginate
[24] = A. niger 16404 - PDB (10 days), B = Propylene glycol monolaurate

Cn1sccc1=O [MIT, 2-methyl-4-isothiazolin-3-one]
Synergy Index (SI) = Qa/QA+Qb/QB ([1]; E. coli 8739, M9GY, 1 day): 1.00 | MIC of the component acting alone (QA or QB) ([1]; E. coli 8739, M9GY, 1 day, 30° C.): 30.00 ppm | SI [1, 4]: 1.00 | Qa [1, 4]: 30.00 ppm | SI [1, 5]: 1.00 | Qa [1, 5]: 30.00 ppm | SI [1, 6]: 1.00 | Qa [1, 6]: 30.00 ppm | SI [1, 7]: 1.00 | Qa [1, 7]: 30.00 ppm | SI [1, 8]: 1.00 | Qa [1, 8]: 30.00 ppm | SI [1, 9]: 1.00 | Qa [1, 9]: 30.00 ppm | SI [1, 10]: 1.00 | Qa [1, 10]: 40.00 ppm | MIC ([1]; Escherichia coli, ATCC8739, 24 h, read-out: MIC of the component acting alone (QA or QB)): 30 µg/mL | Synergy Index (SI) = Qa/QA+Qb/QB ([2]; C. albicans 10231, PDB, 6 days): 1.00 | MIC of the component acting alone (QA or QB) ([2]; C. albicans 10231, PDB, 6 days, 25° C.): 200.00 ppm | SI [2, 11]: 1.00 | Qa [2, 11]: 100.00 ppm | SI [2, 12]: 1.00 | Qa [2, 12]: 150.00 ppm | SI [2, 13]: 1.00 | Qa [2, 13]: 200.00 ppm | SI [2, 14]: 1.00 | Qa [2, 14]: 200.00 ppm | SI [2, 15]: 1.00 | Qa [2, 15]: 200.00 ppm | SI [2, 16]: 1.00 | Qa [2, 16]: 200.00 ppm | SI [2, 17]: 1.00 | Qa [2, 17]: 200.00 ppm | MIC ([2]; Candida albicans, ATCC10231, 144 h, read-out: MIC of the component acting alone (QA or QB)): 200 µg/mL | Synergy Index (SI) = Qa/QA+Qb/QB ([3]; A. niger 16404, PDB, 10 days): 1.00 | MIC of the component acting alone (QA or QB) ([3]; A. niger 16404, PDB, 10 days, 25° C.): 500.00 ppm | SI [3, 18]: 1.00 | Qa [3, 18]: 400 ppm | SI [3, 19]: 1.00 | Qa [3, 19]: 400 ppm | SI [3, 20]: 1.00 | Qa [3, 20]: 750 ppm | SI [3, 21]: 1.00 | Qa [3, 21]: 500 ppm | SI [3, 22]: 1.00 | Qa [3, 22]: 500 ppm | SI [3, 23]: 1.00 | Qa [3, 23]: 750 ppm | SI [3, 24]: 1.00 | Qa [3, 24]: 750.00 ppm | MIC ([3]; Aspergillus niger, ATCC16404, 240 h, read-out: MIC of the component acting alone (QA or QB)): 500 µg/mL
